Experimental data published in patent US20140271517A1, “DEODORANT FORMULATION” (priority 2013, published 2014).

Assays:
[1] = reported pH of the agent; cited from earlier work
[2] = broad cross section of people; '16-20 hour protection and more'; previously presented in U.S. Pat. No. 5,512,274; cited from earlier work
[3] = test system: microorganisms responsible for the odour in perspiration; assay: destruction of odour-causing microorganisms; settings: disinfectant agent in the MgO/ZnO deodorant formulation, 0.5% to 1% by weight
Excerpt: It is believed that the previously recognized synergy between the zinc and magnesium compounds has been further augmented with the disinfection capacity of a potassium and/or […]. Turning to the specific formulations, in a first embodiment, the deodorant formulation includes magnesium oxide in an amount of between 1% and 2.5% by weight and zinc oxide in an amount of between 0.5% and 1.5% by weight. In order to further augment the efficacy of the formulation, a disinfectant agent is included. As an example, potassium sulfate in an amount of between 0.5% and 1% by weight. Propylene glycol in an amount between 45% and 57% by weight is included. Other polyols may be substituted such as glycenol, etc. Sodium stearate is also present in am amount between 4% and 8% by weight. Glycerin is also present in an amount from between 6% and 10% by weight. The balance of the formulation is obviously water. […] The provision for the suspension is very convenient, since the active ingredients are all present and this suspension can used as a precursor in the formulation of other deodorizing products.

Row | Structure (SMILES) | pH [1] | duration of deodorant protection [2] [h] | efficacy in destroying the microorganisms responsible for the odour in perspiration [3]
1 | [Ca+2].[OH-].[OH-] [Lime, calcium hydroxide] | ≥ 12.5 | – | –
2 | [Mg+2].[OH-].[OH-] [magnesium hydroxide] | ~10.0 | 16 to 20 | –
3 | O=S(=O)([O-])[O-].[K+].[K+] [potassium sulfate] | – | – | particularly effective
